From patent US11629171B2, “Beta-hairpin peptidomimetics” (POLYPHOR AG, priority 2017, dated 2023)
Values after ≈ are worked out from the molar mass of the structure shown. Where a SMILES comes first, the peptide text is derived from it. Bridges are numbered along the chain shown (N, C = ends). Roman numbers before positions name the chains, in order. [ ]: non-standard residue; d: D form. Tle = CC(C)(C)[C@H](N)C(=O)O; dDab = NCC[C@@H](N)C(=O)O; Dab = NCC[C@H](N)C(=O)O; Nva = CCC[C@H](N)C(=O)O; Abu = CC[C@H](N)C(=O)O; Dap = NC[C@H](N)C(=O)O

Legend:
Type in all cases: cell-based
[1] = tested on: human red blood cells (hRBC); experiment: Hemolysis; details: red cells of human, 1 h, 200
In short: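 Washed fresh hRBC (20% v/v) were incubated with peptides at 200 μg/mL for 1 h at 37° C with shaking at 300 rpm. Supernatant OD540 was read after centrifugation and dilution, blank-corrected, and expressed as percent of the 2% Triton X-100 (100% lysis) control; PBS with 10% water gave 0%.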

[2] = tested on: Escherichia coli ATCC 25922; details: ATCC 25922
In short: (§1)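 CLSI broth microdilution in cation-adjusted Mueller-Hinton II broth with 0.002% polysorbate 80 (final), inoculum appr. 10^6 CFU/mL, peptides in serial two-fold dilutions. MIC (μg/mL) is the lowest concentration without visible growth after 18-20 h at 35° C.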

[3] = tested on: Klebsiella pneumoniae SSI #3010; details: SSI #3010
In short: as §1

[4] = tested on: Klebsiella pneumoniae 968733; details: 968733
In short: as §1

[5] = tested on: Acinetobacter baumannii 872842; details: 872842
In short: as §1

[6] = tested on: Enterobacter cloacae 848840; details: 848840
In short: as §1

[7] = tested on: Pseudomonas aeruginosa ATCC 27853; details: ATCC 27853
In short: as §1

[8] = tested on: Acinetobacter baumannii DSM 30008; details: DSM 30008
In short: as §1

Escherichia coli 926415 = details: 926415
In short: as §1

Row | SMILES | Hemolysis at 200 μg/mL [1] | MIC [2] | MIC [3] | MIC [4] | MIC [5] | MIC [6] | MIC [7] | MIC [8] | MIC (Escherichia coli 926415)
1 | CC[C@H](C)[C@@H]1NC(=O)[C@H](CO)NC(=O)[C@H](Cc2c[nH]c3ccccc23)NC(=O)[C@H](CCN)NC(=O)[C@@H](CCN)NC(=O)[C@H](CCC(=O)N[C@@H](CCN)C(=O)N[C@H](C(=O)N[C@@H](CN)C(=O)N[C@H]2CCNC(=O)[C@H]([C@@H](C)O)NC(=O)[C@H](CCN)NC(=O)[C@H](CCN)NC(=O)[C@H](CC(C)C)NC(=O)[C@@H](CC(C)C)NC(=O)[C@H](CCN)NC2=O)[C@@H](C)O)NC(=O)[C@H](CO)NC(=O)[C@H](Cc2ccc(O)cc2)NC(=O)[C@@H](NC(=O)[C@@H](NC(C)=O)C(C)C)CSSC[C@@H](C(=O)N[C@@H](CO)C(N)=O)NC1=O [Ex. 253] (I: Ac-VCYSE[dDab][Dab]WSICS-NH2 / II: [Dab]T[Dap][Dab][Dab][dL]L[Dab][Dab]T; disulfide I:2-I:11; amide I:5-II:N; lactam II:4-II:C) | 2% | 0.03125 µg/mL (≈ 0.013 µM) | 0.0625 µg/mL (≈ 0.0259 µM) | 0.0625 µg/mL (≈ 0.0259 µM) | 0.03125 µg/mL (≈ 0.013 µM) | 0.125 µg/mL (≈ 0.0518 µM) | 0.0625 µg/mL (≈ 0.0259 µM) | 0.03125 µg/mL (≈ 0.013 µM) | 0.0625 µg/mL (≈ 0.0259 µM)
2 | CC[C@@H]1NC(=O)[C@@H](CC(C)C)NC(=O)[C@H](CCN)NC(=O)[C@@H](NC(=O)[C@H](CN)NC(=O)[C@@H](NC(=O)[C@H](CCN)NC(=O)CC[C@@H]2NC(=O)[C@H]([C@@H](C)O)NC(=O)[C@H](Cc3ccc(O)cc3)NC(=O)[C@@H](NC(=O)[C@@H](NC(C)=O)C(C)C)CSSC[C@@H](C(=O)N[C@@H](CO)C(N)=O)NC(=O)[C@H](C(C)(C)C)NC(=O)[C@H](CO)NC(=O)[C@H](Cc3c[nH]c4ccccc34)NC(=O)[C@H](CCN)NC(=O)[C@@H](CCN)NC2=O)[C@@H](C)O)CCNC(=O)[C@H]([C@@H](C)O)NC(=O)[C@H](CCN)NC(=O)[C@H](CCN)NC1=O [Ex. 255] (I: Ac-VCYTE[dDab][Dab]WS[Tle]CS-NH2 / II: [Dab]T[Dap][Dab][Dab][dL][Abu][Dab][Dab]T; disulfide I:2-I:11; amide I:5-II:N; lactam II:4-II:C) | 1% | 0.0625 µg/mL (≈ 0.0261 µM) | 0.03125 µg/mL (≈ 0.013 µM) | 0.25 µg/mL (≈ 0.104 µM) | 0.125 µg/mL (≈ 0.0521 µM) | 0.0625 µg/mL (≈ 0.0261 µM) | 0.0625 µg/mL (≈ 0.0261 µM) | 0.03125 µg/mL (≈ 0.013 µM) | 0.0625 µg/mL (≈ 0.0261 µM)
3 | CC[C@@H]1NC(=O)[C@@H](CC(C)C)NC(=O)[C@H](CCN)NC(=O)[C@@H](NC(=O)[C@H](CN)NC(=O)[C@@H](NC(=O)[C@H](CCN)NC(=O)CC[C@@H]2NC(=O)[C@H](CO)NC(=O)[C@H](Cc3ccc(O)cc3)NC(=O)[C@@H](NC(=O)[C@@H](NC(C)=O)C(C)C)CSSC[C@@H](C(=O)N[C@H](C(N)=O)[C@@H](C)O)NC(=O)[C@H](C(C)(C)C)NC(=O)[C@H](CO)NC(=O)[C@H](Cc3c[nH]c4ccccc34)NC(=O)[C@H](CCN)NC(=O)[C@@H](CCN)NC2=O)[C@@H](C)O)CCNC(=O)[C@H]([C@@H](C)O)NC(=O)[C@H](CCN)NC(=O)[C@H](CCN)NC1=O [Ex. 256] (I: Ac-VCYSE[dDab][Dab]WS[Tle]CT-NH2 / II: [Dab]T[Dap][Dab][Dab][dL][Abu][Dab][Dab]T; disulfide I:2-I:11; amide I:5-II:N; lactam II:4-II:C) | 1% | 0.03125 µg/mL (≈ 0.013 µM) | 0.03125 µg/mL (≈ 0.013 µM) | 0.0625 µg/mL (≈ 0.0261 µM) | 0.03125 µg/mL (≈ 0.013 µM) | 0.0625 µg/mL (≈ 0.0261 µM) | 0.0625 µg/mL (≈ 0.0261 µM) | 0.03125 µg/mL (≈ 0.013 µM) | 0.0625 µg/mL (≈ 0.0261 µM)
4 | CC(=O)N[C@H](C(=O)N[C@H]1CSSC[C@@H](C(=O)N[C@@H](CO)C(N)=O)NC(=O)[C@H](C(C)(C)C)NC(=O)[C@H](CO)NC(=O)[C@H](Cc2c[nH]c3ccccc23)NC(=O)[C@H](CCN)NC(=O)[C@@H](CCN)NC(=O)[C@H](CCC(=O)N[C@@H](CCN)C(=O)N[C@H](C(=O)N[C@@H](CN)C(=O)N[C@H]2CCNC(=O)[C@H]([C@@H](C)O)NC(=O)[C@H](CCN)NC(=O)[C@H](CCN)NC(=O)[C@H]([C@@H](C)O)NC(=O)[C@@H](CC(C)C)NC(=O)[C@H](CCN)NC2=O)[C@@H](C)O)NC(=O)[C@H]([C@@H](C)O)NC(=O)[C@H](Cc2ccc(O)cc2)NC1=O)C(C)C [Ex. 262] (I: Ac-VCYTE[dDab][Dab]WS[Tle]CS-NH2 / II: [Dab]T[Dap][Dab][Dab][dL]T[Dab][Dab]T; disulfide I:2-I:11; amide I:5-II:N; lactam II:4-II:C) | 1% | 0.03125 µg/mL (≈ 0.0129 µM) | 0.03125 µg/mL (≈ 0.0129 µM) | 0.25 µg/mL (≈ 0.104 µM) | 0.0625 µg/mL (≈ 0.0259 µM) | 0.0625 µg/mL (≈ 0.0259 µM) | 0.125 µg/mL (≈ 0.0518 µM) | 0.0625 µg/mL (≈ 0.0259 µM) | 0.25 µg/mL (≈ 0.104 µM)
5 | CC(=O)N[C@H](C(=O)N[C@H]1CSSC[C@@H](C(=O)N[C@H](C(N)=O)[C@@H](C)O)NC(=O)[C@H](C(C)(C)C)NC(=O)[C@H](CO)NC(=O)[C@H](Cc2c[nH]c3ccccc23)NC(=O)[C@H](CCN)NC(=O)[C@@H](CCN)NC(=O)[C@H](CCC(=O)N[C@@H](CCN)C(=O)N[C@H](C(=O)N[C@@H](CN)C(=O)N[C@H]2CCNC(=O)[C@H]([C@@H](C)O)NC(=O)[C@H](CCN)NC(=O)[C@H](CCN)NC(=O)[C@H]([C@@H](C)O)NC(=O)[C@@H](CC(C)C)NC(=O)[C@H](CCN)NC2=O)[C@@H](C)O)NC(=O)[C@H]([C@@H](C)O)NC(=O)[C@H](Cc2ccc(O)cc2)NC1=O)C(C)C [Ex. 263] (I: Ac-VCYTE[dDab][Dab]WS[Tle]CT-NH2 / II: [Dab]T[Dap][Dab][Dab][dL]T[Dab][Dab]T; disulfide I:2-I:11; amide I:5-II:N; lactam II:4-II:C) | 1% | 0.03125 µg/mL (≈ 0.0129 µM) | 0.03125 µg/mL (≈ 0.0129 µM) | 0.25 µg/mL (≈ 0.103 µM) | 0.0625 µg/mL (≈ 0.0257 µM) | 0.125 µg/mL (≈ 0.0515 µM) | 0.125 µg/mL (≈ 0.0515 µM) | 0.03125 µg/mL (≈ 0.0129 µM) | 0.125 µg/mL (≈ 0.0515 µM)
6 | CCC[C@@H]1NC(=O)[C@H](CO)NC(=O)[C@H](Cc2c[nH]c3ccccc23)NC(=O)[C@H](CCN)NC(=O)[C@@H](CCN)NC(=O)[C@H](CCC(=O)N[C@@H](CCN)C(=O)N[C@H](C(=O)N[C@@H](CN)C(=O)N[C@H]2CCNC(=O)[C@H]([C@@H](C)O)NC(=O)[C@H](CCN)NC(=O)[C@H](CCN)NC(=O)[C@H](CC(C)C)NC(=O)[C@@H](CC(C)C)NC(=O)[C@H](CCN)NC2=O)[C@@H](C)O)NC(=O)[C@H](CO)NC(=O)[C@H](Cc2ccc(O)cc2)NC(=O)[C@@H](NC(=O)[C@@H](NC(C)=O)C(C)C)CSSC[C@@H](C(=O)N[C@@H](CO)C(N)=O)NC1=O [Ex. 264] (I: Ac-VCYSE[dDab][Dab]WS[Nva]CS-NH2 / II: [Dab]T[Dap][Dab][Dab][dL]L[Dab][Dab]T; disulfide I:2-I:11; amide I:5-II:N; lactam II:4-II:C) | <1% | 0.03125 µg/mL (≈ 0.013 µM) | 0.125 µg/mL (≈ 0.0521 µM) | 0.125 µg/mL (≈ 0.0521 µM) | 0.0625 µg/mL (≈ 0.0261 µM) | 0.5 µg/mL (≈ 0.208 µM) | 0.25 µg/mL (≈ 0.104 µM) | 0.0625 µg/mL (≈ 0.0261 µM) | 0.125 µg/mL (≈ 0.0521 µM)
7 | CC(=O)N[C@H](C(=O)N[C@H]1CCNC(=O)C[C@@H](C(=O)N[C@@H](CO)C(N)=O)NC(=O)[C@H](C(C)(C)C)NC(=O)[C@H](CO)NC(=O)[C@H](Cc2c[nH]c3ccccc23)NC(=O)[C@H](CCN)NC(=O)[C@@H](CCN)NC(=O)[C@H](CCC(=O)N[C@@H](CCN)C(=O)N[C@H](C(=O)N[C@@H](CN)C(=O)N[C@H]2CCNC(=O)[C@H]([C@@H](C)O)NC(=O)[C@H](CCN)NC(=O)[C@H](CCN)NC(=O)[C@H](CC(C)C)NC(=O)[C@@H](CC(C)C)NC(=O)[C@H](CCN)NC2=O)[C@@H](C)O)NC(=O)[C@H](CO)NC(=O)[C@H](Cc2ccc(O)cc2)NC1=O)C(C)C [Ex. 265] (I: Ac-V[Dab]YSE[dDab][Dab]WS[Tle]DS-NH2 / II: [Dab]T[Dap][Dab][Dab][dL]L[Dab][Dab]T; lactam I:2-I:11, II:4-II:C; amide I:5-II:N) | <1% | 0.0625 µg/mL (≈ 0.026 µM) | 0.0625 µg/mL (≈ 0.026 µM) | 0.25 µg/mL (≈ 0.104 µM) | 0.125 µg/mL (≈ 0.052 µM) | 0.5 µg/mL (≈ 0.208 µM) | 0.125 µg/mL (≈ 0.052 µM) | 0.0625 µg/mL (≈ 0.026 µM) | 0.125 µg/mL (≈ 0.052 µM)
8 | CC(=O)N[C@H](C(=O)N[C@H]1CSSC[C@@H](C(=O)N[C@H](C(N)=O)[C@@H](C)O)NC(=O)[C@H](C(C)C)NC(=O)[C@H](CO)NC(=O)[C@H](Cc2c[nH]c3ccccc23)NC(=O)[C@H](CCN)NC(=O)[C@@H](CCN)NC(=O)[C@H](CCC(=O)N[C@@H](CCN)C(=O)N[C@H](C(=O)N[C@@H](CN)C(=O)N[C@H]2CCNC(=O)[C@H]([C@@H](C)O)NC(=O)[C@H](CCN)NC(=O)[C@H](CCN)NC(=O)[C@H](CC(C)C)NC(=O)[C@@H](CC(C)C)NC(=O)[C@H](CCN)NC2=O)[C@@H](C)O)NC(=O)[C@H](CO)NC(=O)[C@H](Cc2ccc(O)cc2)NC1=O)C(C)C [Ex. 267] (I: Ac-VCYSE[dDab][Dab]WSVCT-NH2 / II: [Dab]T[Dap][Dab][Dab][dL]L[Dab][Dab]T; disulfide I:2-I:11; amide I:5-II:N; lactam II:4-II:C) | <1% | 0.03125 µg/mL (≈ 0.013 µM) | 0.0625 µg/mL (≈ 0.0259 µM) | 0.125 µg/mL (≈ 0.0518 µM) | 0.0625 µg/mL (≈ 0.0259 µM) | 0.125 µg/mL (≈ 0.0518 µM) | 0.0625 µg/mL (≈ 0.0259 µM) | 0.0625 µg/mL (≈ 0.0259 µM) | 0.0625 µg/mL (≈ 0.0259 µM)
